Experimental data from US7011948B2, “Detection of ligand-antiligand complex formation by electromagnetically detectable bulk property measurement” (MDS Sciex, priority 2002, dated 2006).
Entries after “also recorded” stand apart in the source; their conditions may differ. Where two headings read alike, the source gives them in different places.

Assays:
[1] = biological target: T1, Ribonuclease A (RNase A) (Bos taurus, UniProt P61823); assay: Multipole Coupling Spectroscopy (MCS) binding titration of CMP ligands with RNase A; conditions: for binding strength to RNase A in words: summary of ITC and MCS results
T1 construct: purchased Sigma (St. Louis, Mo.) R5503
T1 sequence (P61823 27-150): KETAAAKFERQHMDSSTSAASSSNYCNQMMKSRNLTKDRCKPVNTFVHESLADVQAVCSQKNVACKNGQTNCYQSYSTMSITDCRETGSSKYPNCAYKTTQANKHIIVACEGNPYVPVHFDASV
From the text: Given the equation εtot=α+βL0+γg(A0,L0,KD), it can be seen that εtot is a function of L0 and KD (F(L0,KD)). εtot is a measured value and L0 is known. If KD is fixed, εtot can be predicted from L0. Then, KD can be adjusted until the predicted and measured values of εtot are as close as possible according to a nonlinear least squares analysis defined as follows: {(^1L0,^1εtot)|i=1, 2, . . . n} measurements find KD such that • Σ[^1εtot−F(^iLO,KD)]^2 is a minimum.
This formula defines the objective function for this nonlinear least squares problem. The problem is called a least squares problem because the objective function is the sum of the squares of the residuals (differences) between the measurements and the model predictions. The solution is the value of KD that minimizes the objective function. FIG. 7 depicts a plot showing an example of this objective function. There are many ways to minimize the objective function. Any standard function optimization algorithm, such as the steepest descent algorithm, can be used. Some objective function minimization methods take advantage of the particular structure of this objective function, for example the conjugate gradient method and the Levenberg-Marquardt method, and their use may be preferred in many instances. In this way, the strength of the ligand/antiligand bond can be quantified.
Materials. Ribonuclease A, (RNase A, catalogue # R5503)), cytidine 2′-monophosphate free acid (2′-CMP, catalogue # C7137), cytidine 3′-monophosphate free acid (3′-CMP, catalogue # C1133), cytidine 5′-monophosphate free acid (5′-CMP, catalogue # C1131), sodium chloride (catalogue # S7653), magnesium chloride (catalogue # M2670), Bis-Tris free base (catalogue # B7535), and Bis-Tris hydrochloride salt (catalogue # B6032) were purchased from Sigma (St. Louis, Mo.). The surfactant NP-40 (catalogue # 492015) was purchased from Calbiochem (San Diego, Calif.). These reagents were used without further purification. All solutions were prepared using milliQ water. These experiments were performed in a pH 6.0 150 mM BIS-TRIS buffer containing 10 mM sodium chloride, 10 mM magnesium chloride, and 0.005% v/v NP-40. Preparation of Sample Solutions. The protein solution was prepared by dissolving RNase A in the Bis-Tris buffer to give a final concentration of 1 mM protein; no subsequent dialysis was performed. The ligand solutions were prepared by dissolving 2′-CMP, 3′-CMP or 5′-CMP in the 1 mM RNase A solution to give a final concentration of 4 mM ligand. A series of samples which formed the basis of the ligand binding curve were prepared by mixing various ratios of the above two solutions as outlined in Table 1. Multipole Coupling Spectroscopy (MCS). […] The flow cell (a polyimide tube with an 0.0285″ I.D. and an 0.0305″ O.D. from HV Technologies, Trenton, Ga.) was mounted on the top of the coaxial resonating detector such that only the wall of the tubing separated the detector and the fluidic sample. The AFM was used to draw the fluidic samples into the detection region of the flow cell. The network analyzer settings used were S11 reflection, log magnitude, linear frequency sweep in stepped mode, 401 points, IF bandwidth of 30 Hz, power of −5 dBm, and no cable calibration was applied.
To set up the instrument to measure the data of a binding titration, the protein solution was first introduced to the flow cell of the coaxial resonating fixture and the fixture was coupled by adjusting the size of the gap until the desired reflection was achieved (approximately −30 dBm). The co-axial resonator has a sliding mechanism composed of a single dimension translation stage and a mechanical motor (Picomotor Driver from New Focus Inc., San Jose, Calif.) to adjust the gap size separating the pieces of coax such that the desired MCS reflection is achieved. Each of the remaining fluidic samples described in Table 1, below, were sequentially measured. […]

[2] = biological target: T2, RNase (Bos taurus, UniProt P61823); assay: Isothermal Titration Calorimetry (ITC) binding to RNase
T2 sequence (P61823 27-150): T1 sequence (P61823 27-150)
From the text: Table 2, below, provides the chemical structure of each of the three CMP ligands used in this experiment and a comparison of their dissociation constants (KD) binding to RNase as determined by Isothermal Titration Calorimetry (ITC) and Multipole Coupling Spectroscopy (MCS).

[3] = biological target: T3, RNase A (Bos taurus, UniProt P61823); assay: Refractive index binding titration of 2′CMP with RNase A; conditions: 1 mM RNase; 150 mM Bis-Tris buffer pH 6; 2′CMP up to 4 mM
T3 construct: purchased Sigma
T3 sequence (P61823 27-150): T1 sequence (P61823 27-150)
Method: As verification of the generality of the inventive technique in bulk property situations other than the measurements involving permittivity, an experiment was carried out by measuring refractive index as the bulk property of a test solution. The binding assay used was one of the ones shown in Example 1, namely binding of RNase A to the RNase inhibitor 2′CMP. The refractometer used to measure the refractive index of the samples was a Wyatt Technologies Optilab DSP refractometer, calibrated using sodium chloride solutions as described in the manufacturer's instructions. RNase (Sigma) was dissolved in a buffer containing 150 mM Bis-Tris, 10 mM NaCl, 10 mM MgCl2, 0.005% […], pH 6, to provide 1 mM RNase. A portion of this solution was fed into the reference cell of the refractometer, and the instrument was left standing until the readout had stabilized. The test ligand, 2′CMP, was dissolved to 4 mM in a portion of the 1 mM RNase solution, and a titration was prepared to produce the following concentrations.
Samples were then loaded into the Optilab sample cell using a syringe and measured in the following order: […]
The refractometer was zeroed using a 1 mM RNase solution. […] The refractive index change relative to the reference cell was calculated using the software and plotted against the concentration of 2′CMP.

[4] = 27° C., 1 mM RNase A, pH 6.0 Bis-Tris buffer, 1.3 GHz, vs ligand concentration, read-out: KD from fit of absolute permittivity values (e′ real part of permittivity), FIG. 11A
[5] = 27° C., 1 mM RNase A, pH 6.0 Bis-Tris buffer, vs ligand-to-protein ratio, read-out: KD from fit of change in impedance (Zi, imaginary part of impedance), FIG. 11E
[6] = 27° C., 1 mM RNase A, pH 6.0 Bis-Tris buffer, vs ligand-to-protein ratio, read-out: MCS KD from fit of change in permittivity (e′ real part of permittivity), FIG. 11C
[7] = 27° C., 1 mM RNase A, pH 6.0 Bis-Tris buffer, vs ligand-to-protein ratio

Nc1ccn([C@@H]2O[C@H](CO)[C@@H](O)[C@H]2OP(=O)(O)O)c(=O)n1 [2′-CMP, cytidine 2′-monophosphate free acid] showed a Kd [1, 4] of 10 µM, a Kd [1, 5] of 11 µM and a Kd [1, 6] of 10 µM. The “binding strength to RNase A in words” value [1] was “relatively strong binder”, the Kd [2] was 6.3 µM and the “refractive index change vs concentration plot (FIG. 12), binding detection” value [3] was “deviates significantly from linearity, indicating that binding has taken place”.
With Nc1ccn([C@@H]2O[C@H](COP(=O)(O)O)[C@@H](O)[C@H]2O)c(=O)n1 [5′-CMP, cytidine 5′-monophosphate free acid] the “KD from fit of absolute permittivity values (e′ real part of permittivity), FIG. 11A” value ([1]; 27° C., 1 mM RNase A, pH 6.0 Bis-Tris buffer, 1.3 GHz, vs ligand concentration) was “No suitable curve fit was achieved”, the “KD from fit of change in impedance (Zi, imaginary part of impedance), FIG. 11E” value [1, 7] was “No suitable curve fit was achieved” and the “MCS KD from fit of change in permittivity (e′ real part of permittivity), FIG. 11C” value [1, 7] was “No suitable curve fit was achieved; also recorded: non-binding”. The “binding strength to RNase A in words” value [1] was “unmeasurably weak” and the “ITC KD” value [2] was “non-binding”.
Nc1ccn([C@@H]2O[C@H](CO)[C@@H](OP(=O)(O)O)[C@H]2O)c(=O)n1 [3′-CMP, cytidine 3′-monophosphate free acid] gave a Kd [1, 4] of 130 µM, a Kd [1, 5] of 75 µM and a Kd [1, 6] of 130 µM. For the same compound, the “binding strength to RNase A in words” value [1] was “relatively weak binder” and the Kd [2] was 75 µM.
